Several values for one entry are separate records, joined by “and”; a condition that tells them apart may be missing. Equal values may be shown once. Read-outs that look alike come from different tables or passages of the source. Where a SMILES comes first, the peptide text is derived from it. The star is where a group is joined. Palmitoyl = CCCCCCCCCCCCCCCC(=O)*
Experiments:
Type in all cases: cell-based
[1] = system: HIV-1 NL4-3 pseudovirus (WT); conditions: for IC50: WT NL4-3, TZM-bl cells, 48 h, luciferase, triplicate, repeated three times
Method: (§1) The infectivity of HIV Env mutants and the inhibitory activities of membrane fusion inhibitors on mutants in TZM-bl cells were measured using a single-cycle infection assay as described previously. Briefly, the HIV pseudovirus was packed using an Env-coding plasmid, and pSG3ΔEnv was co-transfected into HEK293T cells. pSG3ΔEnv encodes an Env-defective, luciferase-expressing HIV-1 genome. After the pseudoviruses were harvested and filtrated, the amount of pseudoviruses was fixed via P24 antigen, and their infectivity was determined in TZM-bl cells. In order to measure the inhibitory activities of the inhibitors, inhibitors diluted serially 3-fold were mixed with an equal volume of pseudoviruses, and then 100 µL 1 × 10^5/mL TZM-bl cells were added to the mixture and incubated at 37 °C with 5% CO2 for 48 h. After that, TZM-bl cells were lysed using reporter lysis buffer, and IC50 values were calculated according to luciferase activity measured by luciferase assay reagents and a luminescence counter (Promega, Madison, WI, USA).

[2] = system: LP40-V2 pseudovirus (HIV-1 NL4-3 Env mutant)
Method: as §1

[3] = system: HIV-1 NL4-3 gp41 A50V pseudovirus; conditions: Table 2; for IC50: A50V, TZM-bl cells, 48 h, luciferase, mean ± SD, triplicate, repeated three times
Method: (§2) The entry abilities of A15V, L57H, R68G, G86D, C87Y, E119G, and N140S were almost completely lost, corresponding to LP40-V6, LP40-V7, T20-V9, LP40-V3, LP40-V5, LP40-V4, and T20-V5, respectively, so it was determined that these mutation sites might be lethal mutations. […] The differences between the wild-type envelope proteins and serial mutant proteins in mediating membrane fusion were compared using a double-separated protein-based fusion experimental system. […] G20V, A21T, E119G, and Y127H had only an approximately 10% fusion capacity, and L33S, N42D, N42T, and N43S had less than 50% fusion capacity, but N140S had approximately 60% fusion capacity (Figure 6B). […] Among them, we selected the fusion ability of the sixth hour to evaluate the fusion activities of the mutant strains (Figure 6B).
(§3) Viral RNA was extracted from the supernatant, and, after reverse transcription, the cDNA was amplified using PCR. These amplified DNA were connected to the T-Easy vector and transformed to Trans 2-Blue Chemically Competent Cells. These sequences were determined via sequencing. The expression plasmids, which contained different HIV-1NL4-3 Env mutants, were constructed using DNA assembly (NEBuilder® HiFi DNA Assembly Master Mix). In brief, two primers were used to amplify Env, and the other two primers were used to amplify the vector fragment. The products of PCR were purified with a 20–25 bp overlap in the terminal of Env and the vector fragment Env and the vector fragment were added to the DNA assembly master mix at […] for 15 min and then transformed to Trans 2-Blue Chemically Competent Cells. Additionally, a single-point mutation was generated using double-stranded DNA templates and a selection of mutants with a restriction enzyme (DpnI) as described previously. The successful mutations were confirmed via sequencing.
as §1

[4] = system: HIV-1 NL4-3 gp41 A71V pseudovirus; conditions: Table 2; for IC50: A71V, TZM-bl cells, 48 h, luciferase, mean ± SD, triplicate, repeated three times
Method: as §2, §3, §1

[5] = system: HIV-1 NL4-3 gp41 D36G pseudovirus; conditions: Table 2; for IC50: D36G, TZM-bl cells, 48 h, luciferase, mean ± SD, triplicate, repeated three times
Method: as §2, §3, §1

[6] = system: HIV-1 NL4-3 gp41 E137K pseudovirus; conditions: Table 2; for IC50: E137K, TZM-bl cells, 48 h, luciferase, mean ± SD, triplicate, repeated three times
Method: as §2, §3, §1

[7] = system: HIV-1 NL4-3 gp41 G20V pseudovirus; conditions: Table 2; for IC50: G20V, TZM-bl cells, 48 h, luciferase, mean ± SD, triplicate, repeated three times
Method: as §2, §3, §1

[8] = system: HIV-1 NL4-3 gp41 N126K pseudovirus; conditions: Table 2; for IC50: N126K, TZM-bl cells, 48 h, luciferase, mean ± SD, triplicate, repeated three times
Method: as §2, §3, §1

[9] = system: HIV-1 NL4-3 gp41 N43S pseudovirus; conditions: Table 2; for IC50: N43S, TZM-bl cells, 48 h, luciferase, mean ± SD, triplicate, repeated three times
Method: as §2, §3, §1

[10] = system: HIV-1 NL4-3 gp41 S129N pseudovirus; conditions: Table 2; for IC50: S129N, TZM-bl cells, 48 h, luciferase, mean ± SD, triplicate, repeated three times
Method: as §2, §3, §1

[11] = system: HIV-1 NL4-3 gp41 S35P pseudovirus; conditions: Table 2; for IC50: S35P, TZM-bl cells, 48 h, luciferase, mean ± SD, triplicate, repeated three times
Method: as §2, §3, §1

[12] = system: HIV-1 NL4-3 gp41 V38A pseudovirus; conditions: Table 2; for IC50: V38A, TZM-bl cells, 48 h, luciferase, mean ± SD, triplicate, repeated three times
Method: as §2, §3, §1

[13] = system: HIV-1 NL4-3 gp41 V38T pseudovirus; conditions: Table 2; for IC50: V38T, TZM-bl cells, 48 h, luciferase, mean ± SD, triplicate, repeated three times
Method: as §2, §3, §1

[14] = system: HIV-1 NL4-3 gp41 Y127H pseudovirus; conditions: Table 2; for IC50: Y127H, TZM-bl cells, 48 h, luciferase, mean ± SD, triplicate, repeated three times
Method: as §2, §3, §1

## CCCCCCCCCCCCCCCC(=O)NCCCC[C@H](NC(=O)[C@H](CC(=O)O)NC(=O)[C@H](CC(C)C)NC(=O)[C@H](CCC(=O)O)NC(=O)[C@H](CC(C)C)NC(=O)[C@H](CC(C)C)NC(=O)[C@H](CCC(=O)O)NC(=O)[C@H](CCC(N)=O)NC(=O)[C@H](CCC(=O)O)NC(=O)[C@H](CC(N)=O)NC(=O)[C@H](CCCCN)NC(=O)[C@H](CCC(=O)O)NC(=O)[C@H](CCC(N)=O)NC(=O)[C@H](CCC(N)=O)NC(=O)[C@H](CC(N)=O)NC(=O)[C@H](CCC(N)=O)NC(=O)[C@H](CO)NC(=O)[C@H](CCC(=O)O)NC(=O)[C@H](CCC(=O)O)NC(=O)[C@@H](NC(=O)[C@H](CC(C)C)NC(=O)[C@H](CO)NC(=O)[C@H](Cc1c[nH]cn1)NC(=O)[C@@H](NC(=O)[C@H](CC(C)C)NC(=O)[C@H](CO)NC(=O)[C@@H](NC(=O)[C@H](Cc1ccc(O)cc1)NC(C)=O)[C@@H](C)O)[C@@H](C)CC)[C@@H](C)CC)C(N)=O [LP-40] (Ac-YTSLIHSLIEESQNQQEKNEQELLELDK(Palmitoyl)-NH2)
[1]; Table 1, mean ± SD
  IC50: 29.7 ± 4.52 nM
[1]; Table 2, mean ± SD
  IC50: 31.5 ± 10.4 nM
[1]; Table 3, means
  IC50: 27.3 nM
[1]; WT NL4-3 reference, Table 1
  Fold change in IC50: 1.00 fold
[2]; LP40-V2 (Env selected at LP-40 0.3 µM), TZM-bl cells, 48 h, luciferase, mean ± SD, triplicate, repeated three times
  IC50: 374 ± 29.8 nM
[2]; LP40-V2 relative to WT NL4-3, Table 1
  Fold change in IC50: 12.59 fold
[3]; A50V relative to WT NL4-3
  Fold change in IC50: 1.87 fold
[3]
  IC50: 58.8 ± 13.7 nM
[4]; A71V relative to WT NL4-3
  Fold change in IC50: 1.37 fold
[4]
  IC50: 43.2 ± 8.19 nM
[5]; D36G relative to WT NL4-3
  Fold change in IC50: 0.07 fold
[5]
  IC50: 2.22 ± 0.57 nM
[6]; E137K relative to WT NL4-3
  Fold change in IC50: 1.35 fold
[6]
  IC50: 42.6 ± 11.7 nM
[7]; G20V relative to WT NL4-3
  Fold change in IC50: 6.5 fold and 6.49 fold
[7]
  IC50: 205 ± 47.2 nM
[8]; N126K relative to WT NL4-3
  Fold change in IC50: 9.7 fold and 9.65 fold
[8]
  IC50: 304 ± 50.5 nM
[9]; N43S relative to WT NL4-3
  Fold change in IC50: 11.31 fold
[9]
  IC50: 357 ± 117 nM
[10]; S129N relative to WT NL4-3
  Fold change in IC50: 1.08 fold
[10]
  IC50: 34 ± 10 nM
[11]; S35P relative to WT NL4-3
  Fold change in IC50: 0.69 fold
[11]
  IC50: 21.6 ± 5.15 nM
[12]; V38A relative to WT NL4-3
  Fold change in IC50: 110.56 fold
[12]
  IC50: 3490 ± 423 nM
[13]; V38T relative to WT NL4-3
  Fold change in IC50: 46.03 fold
[13]
  IC50: 1450 ± 237 nM
[14]; Y127H relative to WT NL4-3
  Fold change in IC50: 0.18 fold
[14]
  IC50: 5.74 ± 1.86 nM

## Enfuvirtide
[3]
  IC50: 162 ± 69.4 nM
[4]
  IC50: 46.5 ± 12.5 nM
[5]
  IC50: 6 ± 1.68 nM
[6]
  IC50: 68.5 ± 20.1 nM
[7]
  IC50: 49.1 ± 10.9 nM
[8]
  IC50: 117 ± 37.4 nM
[9]
  IC50: 540 ± 91.9 nM
[10]
  IC50: 70.3 ± 19.8 nM
[11]
  IC50: 138 ± 10.6 nM
[12]
  IC50: 1540 ± 22 nM
[13]
  IC50: 991 ± 216 nM
[14]
  IC50: 23.7 ± 2.63 nM
